Experimental data taken from publication PMC7297817, “Pharmacological Characterization of a Betaine/GABA Transporter 1 (BGT1) Inhibitor Displaying an Unusual Biphasic Inhibition Profile and Anti-seizure Effects” (Neurochemical Research, 2020).
Entries after “also recorded” stand apart in the source; their conditions may differ. Read-outs that look alike come from different tables or passages of the source.

How the values were obtained:
M4 = target: T1, M4 (Homo sapiens, UniProt P08173); assay: NIMH PDSP radioligand binding, M4
T1 construct: purchased NIMH Psychoactive Drug Screening Program (PDSP)
T1 sequence (P08173 whole entry): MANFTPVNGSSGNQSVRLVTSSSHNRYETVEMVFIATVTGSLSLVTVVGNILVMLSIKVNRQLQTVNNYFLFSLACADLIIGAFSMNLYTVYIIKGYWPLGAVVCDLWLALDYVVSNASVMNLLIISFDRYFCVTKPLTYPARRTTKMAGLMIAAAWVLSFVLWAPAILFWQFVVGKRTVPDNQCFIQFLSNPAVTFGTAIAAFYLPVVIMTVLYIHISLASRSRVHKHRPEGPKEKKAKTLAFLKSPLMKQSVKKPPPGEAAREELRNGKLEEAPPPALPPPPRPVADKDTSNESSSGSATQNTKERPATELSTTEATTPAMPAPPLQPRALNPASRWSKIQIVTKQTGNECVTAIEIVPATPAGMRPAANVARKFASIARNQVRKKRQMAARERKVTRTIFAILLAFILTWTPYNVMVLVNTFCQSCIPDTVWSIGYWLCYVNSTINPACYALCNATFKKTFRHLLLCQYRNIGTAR

D3 = target: T2, D3 (Homo sapiens, UniProt P35462); assay: NIMH PDSP radioligand binding, D3; conditions: radioligand [3H]N-methylspiperone, n=4
T2 construct: purchased NIMH Psychoactive Drug Screening Program (PDSP)
T2 sequence (P35462 whole entry): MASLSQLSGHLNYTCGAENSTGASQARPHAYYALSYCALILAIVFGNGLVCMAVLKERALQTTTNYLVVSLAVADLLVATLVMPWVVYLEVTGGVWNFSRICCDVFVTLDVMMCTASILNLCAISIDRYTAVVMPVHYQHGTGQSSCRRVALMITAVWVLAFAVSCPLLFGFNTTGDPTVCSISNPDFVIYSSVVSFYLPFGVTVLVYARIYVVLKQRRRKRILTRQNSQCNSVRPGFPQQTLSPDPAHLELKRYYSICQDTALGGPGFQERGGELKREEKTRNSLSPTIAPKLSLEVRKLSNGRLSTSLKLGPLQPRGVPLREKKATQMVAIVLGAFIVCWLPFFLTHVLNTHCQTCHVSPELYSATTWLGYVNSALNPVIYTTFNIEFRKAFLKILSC

canine BGT1 = target: T3, canine BGT1 (Canis lupus familiaris, UniProt P27799); assay: [3H]GABA uptake at canine BGT1 endogenously expressed in MDCK II cells; format: cell-based
T3 construct: the MDCK II cell line express BGT1 endogenously; endogenous in cells; host or cells: MDCK II
T3 sequence (P27799 1-614): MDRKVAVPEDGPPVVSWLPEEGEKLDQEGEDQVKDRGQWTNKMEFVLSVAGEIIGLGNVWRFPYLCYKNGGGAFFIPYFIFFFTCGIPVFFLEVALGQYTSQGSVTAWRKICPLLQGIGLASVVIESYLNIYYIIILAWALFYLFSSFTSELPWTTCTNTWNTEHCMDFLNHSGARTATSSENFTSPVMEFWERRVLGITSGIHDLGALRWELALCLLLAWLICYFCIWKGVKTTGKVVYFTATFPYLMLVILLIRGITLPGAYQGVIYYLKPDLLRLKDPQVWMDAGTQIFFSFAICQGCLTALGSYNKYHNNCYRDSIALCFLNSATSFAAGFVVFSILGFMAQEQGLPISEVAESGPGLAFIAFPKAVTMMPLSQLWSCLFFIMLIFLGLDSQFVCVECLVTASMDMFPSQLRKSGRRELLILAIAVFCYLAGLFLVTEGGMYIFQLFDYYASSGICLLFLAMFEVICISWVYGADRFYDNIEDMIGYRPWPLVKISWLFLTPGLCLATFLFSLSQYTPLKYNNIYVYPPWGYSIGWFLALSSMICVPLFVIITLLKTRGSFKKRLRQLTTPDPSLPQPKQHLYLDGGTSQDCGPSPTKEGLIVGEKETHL
Experimental: (§1) The HEK-293 and Flp-In CHO cell lines stably expressing mouse (m) and human (h) GATs, respectively, have been described previously and were cultured accordingly. The tsA201 cell line was used for transient expression while the MDCK II cell line express BGT1 endogenously. Both cell lines were cultured as described. tsA201 cells were transfected with DNA constructs (8 μg per 10 cm dish if not otherwise mentioned) using 40 μL PolyFect transfection reagent according to the manufacturer’s protocol (Qiagen, Venlo, Netherlands). The DNA constructs encoding hBGT1, hGAT1-3 [36], the mutated constructs hBGT1 Q299 and hGAT3 L314Q described previously, and hBGT Y453A were synthesized and sequence validated by Genscript (NJ, USA).
(§2) The [^3H]GABA competition uptake assay was performed as previously described. A minor change, however, was introduced for uptake in MDCK II cells, in which 100 nM [^3H]GABA was used for a 15 min incubation period at 37 °C instead of 30 nM [^3H]GABA and 3 min incubation. Studies related to the inhibition curves with GABA and BPDBA at hBGT1 were obtained both with and without the presence of 10 μM ATP during the [^3H]GABA uptake assay.
(§3) The [^3H]GABA uptake data was normalized to the percentage of total uptake in the individual experiments in the presence of the lowest compound concentration or no compound present. Data presented is the pooled data of at least three independent experiments with three technical replicates. Concentration–response curves (CRCs) were fitted with GraphPad Prism (version 8.2.1, Yosemite, GraphPad Software, San Diego, CA, USA) by non-linear regression to the sigmoidal concentration response model: Y=Bottom+(Top-Bottom)/1+10^LogIC50-X∗nH where Top is the Top plateau, Bottom is the Bottom plateau, X is the logarithm of the concentration of the compound, LogIC50 is the concentration giving a response halfway between Top and Bottom,and nH is the Hill slope.
(§4) The best fit for CRCs obtained with the [^3H]GABA uptake assay was identified by the extra-sum-of-squares F test (for convenience referred to as F test).

hBGT1 = target: T4, hBGT1 (Homo sapiens, UniProt P48065); assay: [3H]GABA uptake at hBGT1 stably expressed in CHO cells; format: cell-based
T4 construct: expressed in transfected cells; host or cells: tsA201 (transient)
T4 sequence (P48065 1-614): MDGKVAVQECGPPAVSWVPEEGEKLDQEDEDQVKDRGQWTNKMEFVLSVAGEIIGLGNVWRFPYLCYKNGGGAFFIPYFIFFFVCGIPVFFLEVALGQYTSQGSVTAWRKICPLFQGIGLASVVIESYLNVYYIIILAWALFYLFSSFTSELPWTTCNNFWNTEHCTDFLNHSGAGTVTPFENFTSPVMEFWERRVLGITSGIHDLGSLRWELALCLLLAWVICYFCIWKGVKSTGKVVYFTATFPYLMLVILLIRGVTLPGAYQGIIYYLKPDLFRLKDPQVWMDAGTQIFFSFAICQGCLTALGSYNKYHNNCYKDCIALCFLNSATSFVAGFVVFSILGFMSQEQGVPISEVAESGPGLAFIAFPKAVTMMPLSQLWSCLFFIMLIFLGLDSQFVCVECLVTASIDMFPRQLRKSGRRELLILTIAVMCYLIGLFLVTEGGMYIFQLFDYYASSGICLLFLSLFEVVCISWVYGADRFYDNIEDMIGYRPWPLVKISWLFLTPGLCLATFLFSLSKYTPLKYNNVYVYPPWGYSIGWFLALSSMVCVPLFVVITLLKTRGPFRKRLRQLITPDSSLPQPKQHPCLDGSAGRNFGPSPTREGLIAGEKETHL
Experimental: as §1, §2, §3, §4

Sigma2 = assay: NIMH PDSP radioligand binding, Sigma2; conditions: 10 μM; radioligand [3H]DTG; n=4
Experimental: IC50 values in μM (Ki μM)^a. The targets in bold were inhibited by >35% at 10 μM.

M3 = target: T5, M3 (Homo sapiens, UniProt P20309); assay: NIMH PDSP radioligand binding, M3
T5 construct: purchased NIMH Psychoactive Drug Screening Program (PDSP)
T5 sequence (P20309 whole entry): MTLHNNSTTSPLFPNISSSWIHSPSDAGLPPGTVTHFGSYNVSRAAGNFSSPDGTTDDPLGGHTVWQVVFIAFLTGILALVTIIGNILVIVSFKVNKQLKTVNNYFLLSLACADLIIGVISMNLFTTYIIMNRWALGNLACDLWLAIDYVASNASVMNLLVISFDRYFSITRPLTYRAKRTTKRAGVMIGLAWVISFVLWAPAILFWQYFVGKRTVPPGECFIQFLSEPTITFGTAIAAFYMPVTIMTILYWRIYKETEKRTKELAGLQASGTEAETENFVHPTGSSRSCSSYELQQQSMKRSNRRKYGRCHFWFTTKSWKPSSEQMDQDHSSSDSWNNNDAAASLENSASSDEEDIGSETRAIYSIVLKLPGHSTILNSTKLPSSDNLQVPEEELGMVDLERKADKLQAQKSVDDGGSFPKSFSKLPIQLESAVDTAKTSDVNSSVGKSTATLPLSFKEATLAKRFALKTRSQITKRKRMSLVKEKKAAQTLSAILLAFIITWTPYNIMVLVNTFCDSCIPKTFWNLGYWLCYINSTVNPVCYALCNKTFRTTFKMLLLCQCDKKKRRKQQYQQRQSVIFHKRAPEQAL

M1 = target: T6, M1 (Homo sapiens, UniProt P11229); assay: NIMH PDSP radioligand binding, M1
T6 construct: purchased NIMH Psychoactive Drug Screening Program (PDSP)
T6 sequence (P11229 whole entry): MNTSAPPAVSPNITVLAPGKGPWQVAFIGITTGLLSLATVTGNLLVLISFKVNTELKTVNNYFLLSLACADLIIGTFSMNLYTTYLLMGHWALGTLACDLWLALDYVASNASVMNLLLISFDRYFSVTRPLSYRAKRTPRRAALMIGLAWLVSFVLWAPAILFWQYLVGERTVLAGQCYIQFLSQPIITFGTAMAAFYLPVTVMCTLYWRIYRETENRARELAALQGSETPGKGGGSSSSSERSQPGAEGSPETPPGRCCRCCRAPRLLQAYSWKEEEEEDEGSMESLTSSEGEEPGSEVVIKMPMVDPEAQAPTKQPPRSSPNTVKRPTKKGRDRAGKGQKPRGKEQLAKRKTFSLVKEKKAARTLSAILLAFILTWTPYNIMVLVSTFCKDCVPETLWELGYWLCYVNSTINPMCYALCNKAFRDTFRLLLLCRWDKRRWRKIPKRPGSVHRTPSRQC

D5 = target: T7, D5 (Homo sapiens, UniProt P21918); assay: NIMH PDSP radioligand binding, D5; conditions: radioligand [3H]SCH23390
T7 construct: NIMH PDSP (screening service)
T7 sequence (P21918 whole entry): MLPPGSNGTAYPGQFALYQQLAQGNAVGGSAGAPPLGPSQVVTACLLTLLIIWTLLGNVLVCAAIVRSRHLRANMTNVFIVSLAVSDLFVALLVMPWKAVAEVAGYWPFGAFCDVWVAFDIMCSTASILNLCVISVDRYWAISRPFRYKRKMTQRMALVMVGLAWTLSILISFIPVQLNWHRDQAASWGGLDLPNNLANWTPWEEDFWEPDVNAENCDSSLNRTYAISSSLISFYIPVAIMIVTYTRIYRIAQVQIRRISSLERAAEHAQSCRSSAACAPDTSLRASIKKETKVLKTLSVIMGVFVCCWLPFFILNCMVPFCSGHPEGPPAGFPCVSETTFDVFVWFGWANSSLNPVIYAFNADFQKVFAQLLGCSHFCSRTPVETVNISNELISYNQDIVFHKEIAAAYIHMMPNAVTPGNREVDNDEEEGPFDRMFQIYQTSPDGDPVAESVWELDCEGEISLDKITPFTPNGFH

mGAT1 = target: T8, mGAT1 (Mus musculus, UniProt P31648); assay: [3H]GABA uptake at mGAT1 stably expressed in HEK-293 cells; format: cell-based
T8 construct: expressed in transfected cells
Experimental: as §1, §2, §3, §4

Cc1ccsc1C(=CCCN(C)[C@H]1CCCC[C@H]1C(=O)O)c1sccc1C [SBV2-114, (1R,2S)-2-((4,4-bis(3-methylthiophen-2-yl)but-3-en-yl)(methyl)amino)cyclohexanecarboxylic acid]
inhibition at 10 µM (M4): -5.7% | inhibition at 10 µM (D3): 27.8% | Frac (canine BGT1): 0.38 | IC50 (canine BGT1; IC50, high affinity component, biphasic fit, 100 nM [3H]GABA, 15 min): 0.1 µM | IC50 (canine BGT1; pIC50 ± S.E.M., high affinity component, biphasic fit, 100 nM [3H]GABA, 15 min): 0.105 µM | IC50 (canine BGT1; read-out: IC50, low affinity component, biphasic fit, 100 nM [3H]GABA, 15 min): 251 µM | IC50 (hBGT1; IC50, high affinity component, biphasic fit, N=2 of four experiments, CHO): 0.05 µM | Frac (hBGT1; biphasic fit, N=2, CHO): 0.10 | IC50 (hBGT1; pIC50 ± S.E.M., high affinity component, biphasic fit, N=2, CHO): 0.0513 µM | Fit (hBGT1; preferred model, N=2): Biphasic | IC50 (hBGT1; read-out: IC50, low affinity component, biphasic fit, N=2, CHO): 490 µM | IC50 (hBGT1; single IC50, N=2, fit not given, CHO, read-out: IC50): 447 µM | % inhibition (Sigma2): 48.3% | inhibition at 10 µM (M3): 55.4% | inhibition at 10 µM (M1): 18.3% | inhibition at 10 µM (D5; 10 μM, n=4): 51.7% | Ki (D5; full curve, printed with 'ave'): 10 µM | IC50 (mGAT1; ambiguous fit, N=1 experiment, read-out: IC50): > 1000 µM | Frac (mGAT1; biphasic fit, N=1 experiment): 0.14 | IC50 (mGAT1; biphasic fit, N=1 experiment, read-out: pIC50, high affinity component (converted)): 0.417 µM | IC50 (mGAT1; monophasic fit, N=1 experiment, read-out: IC50): > 1000 µM | Fit (mGAT1; preferred model per experiment, F test): Biphasic; also recorded: Monophasic; also recorded: Ambiguous | IC50 (mGAT1; read-out: IC50, low affinity component, biphasic fit, N=1 experiment): 755 µM
